# Experimental data from patent US12077503B2, “Substituted cyclic amides and their use as herbicides” (FMC CORPORATION, priority 2015, dated 2024).
# Legend:
# Experiment in all cases: Test E preemergence
# Assay type in all cases: in vivo
# Conditions in all cases: scale 0 to 100
# [1] = test system: Kochia (Kochia scoparia)
# Outline: (§1)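 Visual ratings from 0 (no effect) to 100 (complete control) were made versus controls 14 to 21 d after treatment. Seeds in silt loam were treated preemergence, or plants 2 to 18 cm tall in peat-based medium postemergence, with the test chemical in a surfactant-containing, non-phytotoxic solvent mixture, then held in a greenhouse.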
# [2] = test system: ryegrass, Italian (Italian ryegrass, Lolium multiflorum)
# Outline: as §1
# [3] = test system: ragweed (common ragweed, Ambrosia elatior)
# Outline: as §1
# [4] = test system: crabgrass, large (large crabgrass, Digitaria sangumnalis)
# Outline: as §1
# [5] = test system: arrowleaf Sida (Sida rhombifolia)
# Outline: as §1
# [6] = test system: velvetleaf (Abutilon theophrasti)
# Outline: as §1
# [7] = test system: beggarticks (hairy beggarticks, Bidens pilosa)
# Outline: as §1
# [8] = test system: pigweed, palmer (palmer pigweed, Amaranthus palmeri)
# Outline: as §1
# [9] = test system: crabgrass, Brazil (Brazilian crabgrass, Digitaria horizontalis)
# Outline: as §1
# [10] = test system: barnyardgrass (Echinochloa crus-galli)
# Outline: as §1
# [11] = test system: horseweed (Conyza canadensis)
# Outline: as §1
# [12] = test system: nutsedge, yellow (yellow nutsedge, Cyperus esculentus)
# Outline: as §1
# [13] = test system: Panicum, fall (fall Panicum, Panicum dichotomiflorum)
# Outline: as §1
# [14] = test system: field bindweed (Convolvulus arvensis)
# Outline: as §1
# [15] = test system: foxtail, green (green foxtail, Setaria viridis)
# Outline: as §1
# [16] = test system: morningglory (Ipomoea coccinea)
# Outline: as §1
# [17] = test system: sandbur (southern sandbur, Cenchrus echinatus)
# Outline: as §1
# [18] = test system: waterhemp (common waterhemp, Amaranthus rudis)
# Outline: as §1
# [19] = test system: goosegrass (Eleusine indica)
# Outline: as §1
# [20] = test system: nightshade (eastern black nightshade, Solanum ptycanthum)
# Outline: as §1
# [21] = test system: surinam grass (Brachiaria decumbens)
# Outline: as §1
smiles,measurement,setting,value
CN1CC(c2cccc(C(F)(F)F)c2)C(C(=O)Nc2cccc(F)c2F)C1=O (stereo not shown) [Compound 636],Plant response rating: Kochia,[1]; 31 g ai/ha,85
same,Plant response rating: Kochia,[1]; 62 g ai/ha,90
same,Plant response rating: Kochia,[1]; 125 g ai/ha,90
same,Plant response rating: Kochia,[1]; 250 g ai/ha,95
same,"Plant response rating: Ryegrass, Italian",[2]; 31 g ai/ha,40
same,"Plant response rating: Ryegrass, Italian",[2]; 62 g ai/ha,65
same,"Plant response rating: Ryegrass, Italian",[2]; 125 g ai/ha,95
same,"Plant response rating: Ryegrass, Italian",[2]; 250 g ai/ha,95
same,Plant response rating: Ragweed,[3]; 31 g ai/ha,0
same,Plant response rating: Ragweed,[3]; 250 g ai/ha,0
same,"Plant response rating: Crabgrass, Large",[4]; 31 g ai/ha,98
same,"Plant response rating: Crabgrass, Large",[4]; 62 g ai/ha,98
same,"Plant response rating: Crabgrass, Large",[4]; 125 g ai/ha,98
same,"Plant response rating: Crabgrass, Large",[4]; 250 g ai/ha,98
same,Plant response rating: Arrowleaf Sida,[5]; 31 g ai/ha,35
same,Plant response rating: Arrowleaf Sida,[5]; 62 g ai/ha,65
same,Plant response rating: Arrowleaf Sida,[5]; 125 g ai/ha,80
same,Plant response rating: Arrowleaf Sida,[5]; 250 g ai/ha,90
same,Plant response rating: Velvetleaf,[6]; 31 g ai/ha,20
same,Plant response rating: Velvetleaf,[6]; 62 g ai/ha,35
same,Plant response rating: Velvetleaf,[6]; 125 g ai/ha,60
same,Plant response rating: Velvetleaf,[6]; 250 g ai/ha,40
same,Plant response rating: Beggarticks,[7]; 31 g ai/ha,0
same,Plant response rating: Beggarticks,[7]; 62 g ai/ha,0
same,Plant response rating: Beggarticks,[7]; 125 g ai/ha,0
same,Plant response rating: Beggarticks,[7]; 250 g ai/ha,0
same,"Plant response rating: Pigweed, Palmer",[8]; 31 g ai/ha,0
same,"Plant response rating: Pigweed, Palmer",[8]; 62 g ai/ha,10
same,"Plant response rating: Pigweed, Palmer",[8]; 125 g ai/ha,80
same,"Plant response rating: Pigweed, Palmer",[8]; 250 g ai/ha,90
same,"Plant response rating: Crabgrass, Brazil",[9]; 31 g ai/ha,95
same,"Plant response rating: Crabgrass, Brazil",[9]; 62 g ai/ha,95
same,"Plant response rating: Crabgrass, Brazil",[9]; 125 g ai/ha,98
same,"Plant response rating: Crabgrass, Brazil",[9]; 250 g ai/ha,98
same,Plant response rating: Barnyardgrass,[10]; 31 g ai/ha,95
same,Plant response rating: Barnyardgrass,[10]; 62 g ai/ha,95
same,Plant response rating: Barnyardgrass,[10]; 125 g ai/ha,98
same,Plant response rating: Barnyardgrass,[10]; 250 g ai/ha,98
same,Plant response rating: Horseweed,[11]; 31 g ai/ha,0
same,Plant response rating: Horseweed,[11]; 62 g ai/ha,90
same,Plant response rating: Horseweed,[11]; 125 g ai/ha,95
same,Plant response rating: Horseweed,[11]; 250 g ai/ha,95
same,"Plant response rating: Nutsedge, Yellow",[12]; 31 g ai/ha,0
same,"Plant response rating: Nutsedge, Yellow",[12]; 62 g ai/ha,0
same,"Plant response rating: Nutsedge, Yellow",[12]; 125 g ai/ha,0
same,"Plant response rating: Nutsedge, Yellow",[12]; 250 g ai/ha,60
same,"Plant response rating: Panicum, Fall",[13]; 31 g ai/ha,90
same,"Plant response rating: Panicum, Fall",[13]; 62 g ai/ha,90
same,"Plant response rating: Panicum, Fall",[13]; 125 g ai/ha,100
same,"Plant response rating: Panicum, Fall",[13]; 250 g ai/ha,90
same,Plant response rating: Field Bindweed,[14]; 31 g ai/ha,0
same,Plant response rating: Field Bindweed,[14]; 62 g ai/ha,75
same,Plant response rating: Field Bindweed,[14]; 125 g ai/ha,80
same,Plant response rating: Field Bindweed,[14]; 250 g ai/ha,70
same,"Plant response rating: Foxtail, Green",[15]; 31 g ai/ha,95
same,"Plant response rating: Foxtail, Green",[15]; 62 g ai/ha,95
same,"Plant response rating: Foxtail, Green",[15]; 125 g ai/ha,95
same,"Plant response rating: Foxtail, Green",[15]; 250 g ai/ha,98
same,Plant response rating: Morningglory,[16]; 31 g ai/ha,0
same,Plant response rating: Morningglory,[16]; 62 g ai/ha,0
same,Plant response rating: Morningglory,[16]; 125 g ai/ha,0
same,Plant response rating: Morningglory,[16]; 250 g ai/ha,0
same,Plant response rating: Sandbur,[17]; 31 g ai/ha,90
same,Plant response rating: Sandbur,[17]; 62 g ai/ha,90
same,Plant response rating: Sandbur,[17]; 125 g ai/ha,90
same,Plant response rating: Sandbur,[17]; 250 g ai/ha,95
same,Plant response rating: Waterhemp,[18]; 31 g ai/ha,25
same,Plant response rating: Waterhemp,[18]; 62 g ai/ha,80
same,Plant response rating: Waterhemp,[18]; 125 g ai/ha,70
same,Plant response rating: Waterhemp,[18]; 250 g ai/ha,80
same,Plant response rating: Goosegrass,[19]; 31 g ai/ha,50
same,Plant response rating: Goosegrass,[19]; 62 g ai/ha,80
same,Plant response rating: Goosegrass,[19]; 125 g ai/ha,90
same,Plant response rating: Goosegrass,[19]; 250 g ai/ha,95
same,Plant response rating: Nightshade,[20]; 31 g ai/ha,0
same,Plant response rating: Nightshade,[20]; 62 g ai/ha,0
same,Plant response rating: Nightshade,[20]; 125 g ai/ha,40
same,Plant response rating: Nightshade,[20]; 250 g ai/ha,50
same,Plant response rating: Surinam Grass,[21]; 31 g ai/ha,40
same,Plant response rating: Surinam Grass,[21]; 62 g ai/ha,90
same,Plant response rating: Surinam Grass,[21]; 125 g ai/ha,95
same,Plant response rating: Surinam Grass,[21]; 250 g ai/ha,95
